According to PMC8162438, “Cancer cell-selective modulation of mitochondrial respiration and metabolism by potent organogold(III) dithiocarbamates” (Chemical Science, 2020):
Entries after “also recorded” stand apart in the source; their conditions may differ.

Test: UV-vis stability in PBS, DMEM and RPMI-1640
Assay type: physicochemical
Conditions: 50 μM, DMEM, RPMI-1640, 37 °C, over 24 h
From the text: We next evaluated the stability of all ten complexes in three relevant biological media, namely, PBS (phosphate-buffered saline), DMEM (Dulbecco's modified eagle medium), and RPMI-1640 (Roswell Park Memorial Institute-1640). RPMI-1640 contain several biological nucleophiles such as amino acids and extracellular relevant levels of GSH, which are common sources of reductants. Development of new drug molecules require proper characterization of compound stability in solution. To evaluate their stability, the complexes were prepared as a stock solution in DMSO (5 mM) and diluted with PBS or DMEM at room temperature to a final concentration of 50 μM. […]
UV-vis Stability in DMEM, PBS and RPMI-1640 at 37 °C. All spectra were recorded on a Shimadzu UV-1280 model instrument. […] Time periods of t = 0 h (after preparation of sample), 1 h, 6 h, 12 h, and 24 h were recorded. […] The absorbance profile was scanned from 650 nm to 240 nm for each scan. For each complex, the data were normalized to the highest absorbance at t = 0 h and plotted in GraphPad Prism 6. […]
Reactivity with GSH (UV-vis Spectroscopy). […] All spectra were recorded on a Shimadzu UV-1280 model instrument.
A blank was prepared by mixing 50 µL of DMSO and 1.95 mL of PBS. Time intervals of 5 minutes and 12 h were recorded. […] For each reaction, the spectrum was normalized to the highest absorbance and plotted in GraphPad Prism 6. […]

SMILES | Stability in biological media (UV-vis absorbance)
C[N+](C)=C1[S][Au-2]2([S]1)[c]1ccccc1C(=O)c1cccc[n+]12.F[P-](F)(F)(F)(F)F (centres unmarked) [1a] | no significant decrease in absorbance
C[N+](C)=C1[S][Au-2]2([S]1)[c]1ccccc1Cc1cccc[n+]12.F[P-](F)(F)(F)(F)F (centres unmarked) [2a] | higher stability in PBS, and DMEM; also recorded: no significant decrease in absorbance
